Consider 7 compounds from ChEMBL document CHEMBL5465560, “Selectivity Literature for EUbOPEN Chemogenomic Library” (2024).

Assay [1] deals with T1, Serine/threonine-protein kinase ULK1 (Homo sapiens) (UniProt O75385).
T1 sequence (whole entry): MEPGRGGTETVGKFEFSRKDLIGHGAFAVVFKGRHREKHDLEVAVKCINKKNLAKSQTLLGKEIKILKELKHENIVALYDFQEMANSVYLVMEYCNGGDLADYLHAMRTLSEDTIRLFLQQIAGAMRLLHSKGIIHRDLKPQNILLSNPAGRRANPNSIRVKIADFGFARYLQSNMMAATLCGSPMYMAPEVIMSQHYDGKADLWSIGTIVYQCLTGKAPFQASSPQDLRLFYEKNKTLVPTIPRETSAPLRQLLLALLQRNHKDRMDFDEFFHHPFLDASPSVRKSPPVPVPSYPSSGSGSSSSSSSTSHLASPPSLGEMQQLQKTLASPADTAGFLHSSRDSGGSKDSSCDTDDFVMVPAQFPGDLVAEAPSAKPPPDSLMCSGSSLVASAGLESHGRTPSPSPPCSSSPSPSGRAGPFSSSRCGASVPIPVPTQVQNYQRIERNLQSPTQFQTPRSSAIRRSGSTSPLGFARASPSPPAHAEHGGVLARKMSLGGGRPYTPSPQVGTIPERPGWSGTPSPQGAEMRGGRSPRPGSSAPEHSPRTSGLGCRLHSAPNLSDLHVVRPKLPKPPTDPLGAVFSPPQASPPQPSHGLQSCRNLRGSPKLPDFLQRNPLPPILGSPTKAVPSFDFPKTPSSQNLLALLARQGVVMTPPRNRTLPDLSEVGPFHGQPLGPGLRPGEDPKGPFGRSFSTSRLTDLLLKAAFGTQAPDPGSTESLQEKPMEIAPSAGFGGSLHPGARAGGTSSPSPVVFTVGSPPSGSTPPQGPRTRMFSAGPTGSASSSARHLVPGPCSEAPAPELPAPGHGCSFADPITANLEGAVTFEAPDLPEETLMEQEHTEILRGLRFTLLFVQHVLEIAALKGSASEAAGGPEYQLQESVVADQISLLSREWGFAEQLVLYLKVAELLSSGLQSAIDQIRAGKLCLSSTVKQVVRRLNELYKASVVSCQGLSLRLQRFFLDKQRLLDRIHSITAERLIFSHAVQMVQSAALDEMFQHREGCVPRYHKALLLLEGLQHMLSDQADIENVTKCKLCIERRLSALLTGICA
In words: Selectivity interaction (ActivX KiNativ screen (kinase selectivity in THP-1 cell lysates)) EUB0000639a ULK1. In kind it is subcellular. The conditions noted are these: lysate, at 0.2 µM.

Assay [2] deals with 5'-AMP-activated protein kinase catalytic subunit alpha-1 (Homo sapiens, UniProt Q13131). In words: Selectivity interaction (ActivX KiNativ screen (kinase selectivity in THP-1 cell lysates)) EUB0000639a PRKAA1. The conditions noted are these: lysate, at 0.01 µM. In kind it is subcellular.
Sequence of 5'-AMP-activated protein kinase catalytic subunit alpha-1 (Q13131 whole entry, looked up): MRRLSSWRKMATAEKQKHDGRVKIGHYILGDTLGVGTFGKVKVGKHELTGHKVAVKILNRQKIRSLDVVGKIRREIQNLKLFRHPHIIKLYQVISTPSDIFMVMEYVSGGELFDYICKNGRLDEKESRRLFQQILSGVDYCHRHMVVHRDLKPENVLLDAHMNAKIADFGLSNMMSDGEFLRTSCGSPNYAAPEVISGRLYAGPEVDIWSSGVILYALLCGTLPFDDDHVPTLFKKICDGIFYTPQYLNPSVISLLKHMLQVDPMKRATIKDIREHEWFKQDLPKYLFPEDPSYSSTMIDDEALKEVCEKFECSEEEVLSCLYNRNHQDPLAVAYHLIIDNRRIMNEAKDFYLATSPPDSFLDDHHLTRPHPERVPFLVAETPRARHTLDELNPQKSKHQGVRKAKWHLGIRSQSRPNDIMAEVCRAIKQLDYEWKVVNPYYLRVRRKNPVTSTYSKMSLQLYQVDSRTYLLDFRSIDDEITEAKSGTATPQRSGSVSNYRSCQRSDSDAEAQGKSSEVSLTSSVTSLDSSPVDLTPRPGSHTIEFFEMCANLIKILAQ
In assay [3] the target is Protein kinase C beta type (Homo sapiens, UniProt P05771).
Sequence of Protein kinase C beta type (P05771 whole entry): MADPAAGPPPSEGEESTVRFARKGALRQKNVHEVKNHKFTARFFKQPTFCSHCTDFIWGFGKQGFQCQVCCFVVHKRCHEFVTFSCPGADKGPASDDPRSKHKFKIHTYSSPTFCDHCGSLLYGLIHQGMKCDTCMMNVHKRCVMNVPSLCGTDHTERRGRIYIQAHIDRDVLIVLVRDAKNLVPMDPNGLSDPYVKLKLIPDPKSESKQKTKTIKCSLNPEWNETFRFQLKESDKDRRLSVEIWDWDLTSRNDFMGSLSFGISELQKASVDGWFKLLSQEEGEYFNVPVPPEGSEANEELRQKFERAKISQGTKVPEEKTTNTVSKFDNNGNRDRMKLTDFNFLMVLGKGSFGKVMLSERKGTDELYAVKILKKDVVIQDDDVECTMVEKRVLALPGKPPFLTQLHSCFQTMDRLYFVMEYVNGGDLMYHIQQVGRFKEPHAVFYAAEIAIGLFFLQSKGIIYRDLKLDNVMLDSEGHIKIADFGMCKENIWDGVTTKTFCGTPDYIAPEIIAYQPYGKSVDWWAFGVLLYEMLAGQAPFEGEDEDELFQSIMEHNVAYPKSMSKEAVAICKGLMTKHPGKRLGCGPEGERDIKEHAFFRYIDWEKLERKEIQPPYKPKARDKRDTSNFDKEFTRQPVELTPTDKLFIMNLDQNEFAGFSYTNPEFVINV
The target in assay [4] is Ephrin type-A receptor 5 (Homo sapiens) (UniProt P54756). In words: Selectivity interaction (Upstate Kinase Profiler service (Millipore)) EUB0000056c EPHA5. The conditions noted are these: at 1 µM.
Assay [5] has as its target Leucine-rich repeat serine/threonine-protein kinase 2 (Homo sapiens, UniProt Q5S007). In words: (§1) Selectivity interaction (KinomeScan (DiscoverX)) EUB0000618a LRRK2. The conditions noted are these: at 10 µM.
Assay [6] relates to Leucine-rich repeat serine/threonine-protein kinase 2 (Homo sapiens), Q5S007 [G2019S]. Described as §1. The conditions noted are these: at 10 µM.
Sequence of Leucine-rich repeat serine/threonine-protein kinase 2 (Homo sapiens), Q5S007 [G2019S] (Q5S007 whole entry G2019S): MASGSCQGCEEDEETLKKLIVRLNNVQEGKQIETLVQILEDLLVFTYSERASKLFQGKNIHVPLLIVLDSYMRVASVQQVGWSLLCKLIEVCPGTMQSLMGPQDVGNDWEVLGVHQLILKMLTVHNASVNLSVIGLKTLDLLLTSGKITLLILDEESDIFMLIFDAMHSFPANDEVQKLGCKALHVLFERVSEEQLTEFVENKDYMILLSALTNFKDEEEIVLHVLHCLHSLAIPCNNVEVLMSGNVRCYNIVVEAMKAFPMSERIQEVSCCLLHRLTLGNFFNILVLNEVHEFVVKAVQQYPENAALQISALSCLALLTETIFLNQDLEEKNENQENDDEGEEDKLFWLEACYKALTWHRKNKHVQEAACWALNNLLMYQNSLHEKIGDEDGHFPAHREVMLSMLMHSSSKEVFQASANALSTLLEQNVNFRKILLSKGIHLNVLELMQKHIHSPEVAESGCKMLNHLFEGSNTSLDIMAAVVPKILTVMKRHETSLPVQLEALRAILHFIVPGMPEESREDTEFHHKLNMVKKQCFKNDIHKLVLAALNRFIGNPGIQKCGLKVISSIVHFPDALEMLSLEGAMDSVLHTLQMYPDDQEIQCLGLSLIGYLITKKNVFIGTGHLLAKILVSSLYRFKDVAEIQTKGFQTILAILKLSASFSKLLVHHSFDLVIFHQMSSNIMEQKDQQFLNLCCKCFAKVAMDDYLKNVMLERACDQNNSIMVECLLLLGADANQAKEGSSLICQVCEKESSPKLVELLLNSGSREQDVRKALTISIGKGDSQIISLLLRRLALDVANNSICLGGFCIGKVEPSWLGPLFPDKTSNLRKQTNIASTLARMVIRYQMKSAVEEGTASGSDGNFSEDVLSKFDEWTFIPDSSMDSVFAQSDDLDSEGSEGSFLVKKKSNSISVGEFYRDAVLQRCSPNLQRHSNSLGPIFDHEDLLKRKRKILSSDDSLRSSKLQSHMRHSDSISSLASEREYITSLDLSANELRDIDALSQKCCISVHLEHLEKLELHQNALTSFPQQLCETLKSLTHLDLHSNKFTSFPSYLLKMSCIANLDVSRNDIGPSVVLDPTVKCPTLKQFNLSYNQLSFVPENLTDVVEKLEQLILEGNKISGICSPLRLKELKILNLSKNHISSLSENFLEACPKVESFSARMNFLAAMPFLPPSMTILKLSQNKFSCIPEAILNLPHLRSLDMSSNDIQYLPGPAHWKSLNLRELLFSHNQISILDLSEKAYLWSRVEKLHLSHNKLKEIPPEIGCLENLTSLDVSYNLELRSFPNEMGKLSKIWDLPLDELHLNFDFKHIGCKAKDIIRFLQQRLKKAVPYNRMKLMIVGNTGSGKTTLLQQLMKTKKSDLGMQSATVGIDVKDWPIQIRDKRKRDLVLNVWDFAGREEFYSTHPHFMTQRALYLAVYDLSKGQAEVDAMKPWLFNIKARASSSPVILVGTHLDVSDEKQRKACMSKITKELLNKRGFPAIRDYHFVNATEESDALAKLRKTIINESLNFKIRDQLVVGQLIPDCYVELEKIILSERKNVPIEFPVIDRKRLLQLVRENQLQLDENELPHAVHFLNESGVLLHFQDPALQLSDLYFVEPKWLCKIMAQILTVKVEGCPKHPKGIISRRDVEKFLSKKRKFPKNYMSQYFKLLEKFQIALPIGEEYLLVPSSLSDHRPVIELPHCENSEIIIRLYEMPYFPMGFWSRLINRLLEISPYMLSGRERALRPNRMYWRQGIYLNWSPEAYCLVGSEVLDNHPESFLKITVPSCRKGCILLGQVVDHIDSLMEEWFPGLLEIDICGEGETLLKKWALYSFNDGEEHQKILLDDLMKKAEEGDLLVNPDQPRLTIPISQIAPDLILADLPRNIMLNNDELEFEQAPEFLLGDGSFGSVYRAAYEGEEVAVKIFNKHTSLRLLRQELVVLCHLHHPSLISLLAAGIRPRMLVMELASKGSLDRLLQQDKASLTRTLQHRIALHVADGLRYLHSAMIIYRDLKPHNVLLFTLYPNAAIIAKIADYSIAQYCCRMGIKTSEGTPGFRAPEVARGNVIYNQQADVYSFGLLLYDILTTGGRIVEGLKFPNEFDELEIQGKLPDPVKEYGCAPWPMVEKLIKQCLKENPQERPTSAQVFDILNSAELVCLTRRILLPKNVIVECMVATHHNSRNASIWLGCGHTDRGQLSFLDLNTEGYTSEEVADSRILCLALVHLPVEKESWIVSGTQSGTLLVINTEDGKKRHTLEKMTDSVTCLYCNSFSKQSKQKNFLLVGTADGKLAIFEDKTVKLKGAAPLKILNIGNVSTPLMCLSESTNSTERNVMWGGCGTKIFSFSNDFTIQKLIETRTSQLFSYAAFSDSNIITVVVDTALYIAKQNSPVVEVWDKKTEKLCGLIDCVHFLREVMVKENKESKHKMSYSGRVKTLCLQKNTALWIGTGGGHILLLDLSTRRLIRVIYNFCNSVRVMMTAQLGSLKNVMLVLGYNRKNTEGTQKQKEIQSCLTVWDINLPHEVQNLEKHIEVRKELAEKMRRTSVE
Assay [7] deals with T2, Inhibitor of nuclear factor kappa-B kinase subunit epsilon (Homo sapiens) (UniProt Q14164).
T2 sequence (whole entry): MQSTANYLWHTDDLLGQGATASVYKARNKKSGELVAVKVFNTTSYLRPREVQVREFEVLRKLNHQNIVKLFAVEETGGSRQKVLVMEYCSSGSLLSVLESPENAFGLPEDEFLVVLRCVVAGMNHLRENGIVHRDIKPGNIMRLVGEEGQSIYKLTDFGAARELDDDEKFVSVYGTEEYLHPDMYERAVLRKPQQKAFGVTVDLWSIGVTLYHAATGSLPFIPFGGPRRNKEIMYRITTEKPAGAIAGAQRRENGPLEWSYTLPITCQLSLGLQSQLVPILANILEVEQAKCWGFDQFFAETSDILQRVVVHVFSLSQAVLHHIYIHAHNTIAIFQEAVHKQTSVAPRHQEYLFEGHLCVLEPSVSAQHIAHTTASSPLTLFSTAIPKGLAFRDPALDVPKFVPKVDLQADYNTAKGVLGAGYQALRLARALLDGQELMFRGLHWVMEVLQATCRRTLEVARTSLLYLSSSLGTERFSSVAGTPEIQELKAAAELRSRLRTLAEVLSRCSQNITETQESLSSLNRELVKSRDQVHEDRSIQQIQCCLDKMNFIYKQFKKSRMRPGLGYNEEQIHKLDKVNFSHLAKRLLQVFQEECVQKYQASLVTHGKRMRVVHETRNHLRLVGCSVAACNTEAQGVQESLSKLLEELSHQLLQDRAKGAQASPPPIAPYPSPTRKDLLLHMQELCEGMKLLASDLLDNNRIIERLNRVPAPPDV
In words: Selectivity interaction (KinomeScan (DiscoverX)) EUB0000092b IKBKE. Conditions: at 10 µM.

Assay [8] has as its target Cyclin-dependent kinase 5 (Homo sapiens, UniProt Q00535). In words: Selectivity interaction (KinomeScan (DiscoverX)) EUB0000092b CDK5. Conditions: at 10 µM.
Assay [9] deals with Serine/threonine-protein kinase 35 (Homo sapiens) (UniProt Q8TDR2). In words: Selectivity interaction (KinomeScan (DiscoverX)) EUB0001079a STK35. The conditions noted are these: at 1 µM.
Sequence of Serine/threonine-protein kinase 35 (Homo sapiens) (Q8TDR2 whole entry): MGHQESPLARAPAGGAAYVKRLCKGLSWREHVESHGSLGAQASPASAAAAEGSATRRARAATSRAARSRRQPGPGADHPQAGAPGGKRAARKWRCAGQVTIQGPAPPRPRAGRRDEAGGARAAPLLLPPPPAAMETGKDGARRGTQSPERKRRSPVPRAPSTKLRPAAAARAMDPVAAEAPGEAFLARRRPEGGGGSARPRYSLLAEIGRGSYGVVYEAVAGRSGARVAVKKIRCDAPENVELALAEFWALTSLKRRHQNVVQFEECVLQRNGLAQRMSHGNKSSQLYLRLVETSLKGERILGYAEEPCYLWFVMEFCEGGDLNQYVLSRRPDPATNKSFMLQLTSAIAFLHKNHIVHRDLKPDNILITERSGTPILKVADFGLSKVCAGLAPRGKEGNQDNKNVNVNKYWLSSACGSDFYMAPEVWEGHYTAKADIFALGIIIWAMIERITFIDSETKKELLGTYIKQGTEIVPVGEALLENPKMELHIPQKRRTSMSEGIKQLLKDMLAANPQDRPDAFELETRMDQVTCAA
In assay [10] the target is T3, NUAK family SNF1-like kinase 2 (Homo sapiens) (UniProt Q9H093).
T3 sequence (whole entry): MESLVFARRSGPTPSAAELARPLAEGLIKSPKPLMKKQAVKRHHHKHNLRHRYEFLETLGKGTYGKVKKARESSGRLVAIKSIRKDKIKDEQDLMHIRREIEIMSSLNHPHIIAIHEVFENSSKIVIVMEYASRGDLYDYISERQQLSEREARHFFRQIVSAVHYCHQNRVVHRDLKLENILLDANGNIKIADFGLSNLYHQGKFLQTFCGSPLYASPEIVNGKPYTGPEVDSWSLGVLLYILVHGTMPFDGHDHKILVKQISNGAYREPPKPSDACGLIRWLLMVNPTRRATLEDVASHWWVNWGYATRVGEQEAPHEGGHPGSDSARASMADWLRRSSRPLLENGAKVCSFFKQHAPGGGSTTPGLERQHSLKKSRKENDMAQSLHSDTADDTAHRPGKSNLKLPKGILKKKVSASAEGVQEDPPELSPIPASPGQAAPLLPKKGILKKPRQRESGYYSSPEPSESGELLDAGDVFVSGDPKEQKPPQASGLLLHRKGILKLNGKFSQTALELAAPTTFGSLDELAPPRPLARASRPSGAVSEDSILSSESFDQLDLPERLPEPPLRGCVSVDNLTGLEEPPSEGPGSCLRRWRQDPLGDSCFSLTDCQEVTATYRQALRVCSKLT
In words: Selectivity interaction (KinomeScan (DiscoverX)) EUB0000229b NUAK2. Conditions: at 10 µM.

By IC50 is commonly meant the concentration that gives 50% inhibition.

Sequence of Leucine-rich repeat serine/threonine-protein kinase 2 (Q5S007 whole entry): as the sequence (Q5S007 whole entry G2019S) above, with S2019G counted along it
Sequence of Cyclin-dependent kinase 5 (Q00535 whole entry, looked up): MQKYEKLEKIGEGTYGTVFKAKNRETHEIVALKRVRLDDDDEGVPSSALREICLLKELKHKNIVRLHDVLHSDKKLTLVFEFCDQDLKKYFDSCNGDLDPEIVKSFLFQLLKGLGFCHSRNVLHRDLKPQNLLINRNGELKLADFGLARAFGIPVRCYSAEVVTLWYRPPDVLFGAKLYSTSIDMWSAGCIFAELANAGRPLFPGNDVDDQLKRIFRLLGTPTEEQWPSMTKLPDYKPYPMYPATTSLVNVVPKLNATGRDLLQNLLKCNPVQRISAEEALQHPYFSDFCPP

For the compound `CC[C@@H]1[C@H](F)C(=O)N[C@@H]1COc1nccc2cc(C(N)=O)c(OC)cc12` [ZIMLOVISERTIB], the % of inhibition was -29.3% in [1] and 14.5% in assay [2]. `CCc1cccc(CC)c1NC(=O)c1nn(C)c2c1CCc1cnc(Nc3ccc(C(=O)NC4CCN(C)CC4)cc3OC(F)(F)F)nc1-2`: in assay [3], the IC50 was > 10 µM. For `Cc1ccc(-c2ccc3c(ccc4sc5c(c43)NC[C@@H](C)NC5=O)n2)cn1`, the % of inhibition in assay [4] came out at 6%.

Turning to `O[C@H]1CC[C@H](Nc2ncc3nc(Nc4c(F)cc(F)cc4F)n([C@H]4CCOC4)c3n2)CC1`, the % of control in assay [5] came to 83%; in assay [6] it was 95%.

As to `CCC(=O)N1CCN(c2ccc(-n3c(=O)ccc4cnc5ccc(-c6cnc7ccccc7c6)cc5c43)cc2C(F)(F)F)CC1`, the values for the % of control in assay [7] and in assay [8] were 87% and 100%, respectively.

In [9], `Nc1cnc(N2CCc3cc(S(=O)(=O)Nc4c(F)cc(Cl)cc4F)cc(N4CCCC4=O)c32)nc1` [TP-020n] displayed a % of control of 100%. Turning to `COc1cc(N(C)c2ccnc3ccc(C(F)(F)F)cc23)cc(OC)c1OC`, the % binding in [10] is 86%.
